# Source: patent US20210177722A1, “Phytic Acid Ester Derivative” (NATIONAL UNIVERSITY CORPORATION KUMAMOTO UNIVERSITY, priority 2018, published 2021)
# Tests used:
# [1] = tested on: TRAF6; test: Western blotting (2), anti-TRAF6 antibody, Jurkat cell; type: cell-based, human; settings: 1 μM or 10 μM, 8 hours or 24 hours
# Procedure: In this example, in the same manner as in Example 4, the action mechanism for killing cells by Pro-IP6 was checked by Wester blotting using a Jurkat cell and various antibodies. Jurkat cells (1×10^5 cells/well, culture fluid: 500 μL) were seeded in a 24-well plate to be cultured overnight. Thereafter, DMSO (1%, Fujifilm Wako Pure Chemical Corporation), an aqueous solution (1%) of IP6 (final concentration 10 μM, Sigma Aldrich), or a DMSO solution (1%) of Pro-IP6 (final concentration: 1 μM or 10 μM) was added thereto, followed by culturing for 8 hours or 24 hours. A supernatant was removed, the resultant was washed with 1× PBS (−) once, Laemmli sample buffer was added thereto, and the resultant was boiled at 100° C. for […] to dissolve the cells. The resultant was subjected to electrophoresis and then transferred onto a membrane (Millipore). […] Detection was performed using ImmunoStar LD (Fujfilm Wako Pure Chemical Corporation).
# [2] = tested on: HeLa cell; test: Quantitative determination of IP6 in cell (LC/MS of IP6 methyl ester); type: cell-based; settings: HeLa cells, 10 μM, 30 minutes
# Procedure: In this example, incorporation of Pro-IP6 into a HeLa cell was quantitatively determined.
# HeLa cells (5×10^5 cells/well, culture fluid: 1 mL) were seeded in a 3.5 cm dish to be cultured for 24 hours. Thereafter, DMSO (1%, Fujifilm Wako Pure Chemical Corporation), an aqueous solution (1%) of IP6 (final concentration: 10 μM, Sigma Aldrich), or a DMSO solution (1%) of Pro-IP6 (final concentration: 10 μM) synthesized in Example 1 was added thereto, and the resultant was cultured for another 30 minutes. HeLa cells were cultured with neither IP6 nor Pro-IP6 added, followed by adding the same amount of DMSO thereto, and the resultant was used as a negative control.
# Thereafter, the resultant was washed with 1× PBS (−) once, and the resultant cells were scraped with a cell scraper, transferred to a 1.5 mL tube, and washed with 1× PBS (−) three times. To the thus obtained precipitate, 350 μl of MeOH (Fujifilm Wako Pure Chemical Corporation) and 1% NP-40 (Nacalai Tesque, Inc.) were added, followed by sonication (10 minutes). After equilibrating a column (Oasis WAX 1cc, Waters) with MeOH (1 mL) and H2O (1 mL), a disrupted cell extract was added thereto. Thereafter, the column was washed with 50% MeOH (1 mL), and eluted with 50% MeOH (200 μL×2) containing 2 mol/L of HCl (Fujifilm Wako Pure Chemical Corporation). The thus obtained eluate was concentrated, and dissolved in MeOH (50 μL), and trimethylsilyldiazomethane (200 μl, Tokyo Chemical Industry Co., Ltd.) was added thereto, followed by stirring at 50° C. for 1 hour under argon atmosphere. The reaction was stopped by adding H2O (100 μL). Through a reaction of trimethylsilyidiazomethane with IP6, IP6 methyl ester is obtained.
# The thus obtained sample (IP6 methyl ester) was measured by LC/MS [column: MastroC18 2.1 mm×100 mm, […] (Shimadzu GLC Ltd.), mobile phase: 0.1% formic acid solution (Fujifilm Wako Pure Chemical Corporation), acetonitrile (Fujifilm Wako Pure Chemical Corporation)] [LC:LC-20AD (Shimadzu), MS: amaZon speed (BRUKER)].
# [3] = tested on: K562 cell (chronic myelogenous leukemia cell); test: MTT assay, K562 cell; type: cell-based; settings: 1 μM or 10 μM, 8 hours or 24 hours
# Procedure: In this example, the cytotoxic effect of Pro-IP6 on four types of blood cancer cell lines and a cell derived from a healthy person was examined by MTT assay. […] It is possible to check viability of cultured cells by MTT assay. Cancer cell lines (1.74×10^4 cells/well, culture fluid: 200 μL) • MT-2 cell (HTLV transformed human T cell leukemia cell) • […] cell (human T-lymphoblastoid cell) • Jurkat cell (human T-lymphocyte cell) • K562 cell (chronic myelogenous leukemia cell) Each of the above-described types of cells was seeded in a 96-well plate, and was cultured for 8 hours for each of the various cancer cell lines and for 16 hours for PMBC. Thereafter, DMSO (1%, Fujifilm Wako Pure Chemical Corporation), an aqueous solution (1%) of IP6 (final concentration: 1 μM or 10 μM, Sigma Aldrich), or a DMSO solution (1%) of Pro-IP6 (final concentration: 1 μM or 10 μM) was added thereto, followed by culturing for 8 hours or 24 hours. An MTT reagent (Dojindo Laboratories, 1.1 mg/mL) was added in an amount of 50 μL per well, and the resultant was cultured for another 4 hours. The thus precipitated crystal was collected, a supernatant was removed, and 100 μL of DMSO was added thereto to completely dissolve. The resultant solution was measured for an absorbance (550 nm).
# [4] = molecular target: T1, virus protein Gag (Human immunodeficiency virus type 1 group M subtype B, UniProt P12493); test: Intracellular aggregation of virus protein Gag (fluorescence microscope); type: cell-based; settings: HeLa cells, 10 μM, 4 hours
# T1 construct: aggregation of virus protein Gag or the MA region thereof; Venus; FLAG (C); expressed in transfected cells; host or cells: HeLa cells
# Procedure: HeLa cells (0.5×10^5 cells/well, culture fluid: 300 μL) were seeded in a 8-well chamber slide (Thermo fisher scientific) to be cultured overnight. […] (Thermo fisher scientific) was used to introduce pUC or pEF-Gag(p17)cFLAG, pNL4-3/Gag-Venus, and the resultant was cultured for 10 hours. Thereafter, DMSO (1%, Fujifilm Wako Pure Chemical Corporation) or Pro-IP6 (final concentration: 10 μM) was added thereto, followed by culturing for another 4 hours. The thus obtained cells were fixed with 4% paraformaldehyde (Tokyo Chemical Industry Co., Ltd.), dyed with Hoechst 33342 (Thermo fisher scientific), and observed with a fluorescence microscope, BZ-X800 (Keyence).
# [5] = tested on: Caspase-3; test: Western blotting (1), Caspase-3 antibody, Jurkat cell; type: cell-based, human; settings: 10 μM
# Procedure: In this example, the action mechanism for killing cells by Pro-IP6 was studied by Wester blotting using a Jurkat cell and various antibodies. Jurkat cells (1×10^5 cells/well, culture fluid: 500 μL) were seeded in a 24-well plate to be cultured overnight. Thereafter, DMSO (1%, Fujifilm Wako Pure Chemical Corporation), an aqueous solution (1%) of IP6 (final concentration: 10 μM, Sigma Aldrich), or a DMSO solution (1%) of Pro-IP6 (final concentration: 1 μM or 10 μM) was added thereto, followed by culturing for 8 hours or 24 hours. A supernatant was removed, the resultant was washed with 1× PBS (−) once, Laemmli sample buffer was added thereto, and the resultant was boiled at 100° C. for 1 hour to dissolve the cells. […] Detection was performed using ImmunoStar LD (Fujifilm Wako Pure Chemical Corporation).
structure (smiles),measurement,setting,value
"CCCC(=O)OCOP(=O)(OCOC(=O)CCC)O[C@H]1[C@H](OP(=O)(OCOC(=O)CCC)OCOC(=O)CCC)[C@@H](OP(=O)(OCOC(=O)CCC)OCOC(=O)CCC)[C@H](OP(=O)(OCOC(=O)CCC)OCOC(=O)CCC)[C@@H](OP(=O)(OCOC(=O)CCC)OCOC(=O)CCC)[C@H]1OP(=O)(OCOC(=O)CCC)OCOC(=O)CCC [Pro-IP6, myo-inositol hexaphosphate dodecakis(butyryloxymethyl) ester]",expression of TRAF6,[1],inhibits expression of TRAF6
same,incorporation into HeLa cell (IP6 methyl ester by LC/MS vs negative control),[2],well incorporated
same,amount of IP6 methyl ester observed in cell relative to that of IP6,[2]; LC/MS,not less than 200 times
same,lowering of relative cell viability,[3],≥ 25%
same,aggregation of virus protein Gag or MA region in cell,[4],aggregated
same,cleavage of Caspase-3 (induction of apoptosis),[5],cleavage of PARP-1 and Caspase-3 was observed
